These results are taken from US8993626B2, “Methods of treatment using sterculic acid” (The United States of America, as represented by the …, priority 2010, dated 2015).

Entries after “also recorded” stand apart in the source; their conditions may differ.

The subject of data set [1] is ARPE19 cells. The experiment in a line: Microelectronic cell sensor assay (RT-CES), 7KCh-induced cytotoxicity. To be noted: 1 μM fatty acid + 15 μM 7KCh, serum free media.
Method: 4×10^4 cells were seeded onto wells of 16× microtiter plates. […] Cell viability was determined as a cell index (CI) calculated from the impedance of each well automatically by the RT-CES system once per hr until the end of the experiment. The data was normalized at the point immediately prior to compound treatment.
RT-CES® System is a cell-based assay system that monitors cellular events by measuring the electronic impedance of sensor electrodes integrated on the bottom of microtiter E-Plates. The presence of the cells will lead to an increase in the electrode impedance. The more cells attached to the sensor, the higher the impedance that could be monitored with RT-CES.
1) Cells were cultivated in the ACEA's 16X E-plate device containing microelectrodes at the bottom of each well to measure contact area and electrical properties of adherent cells. […]
4) Cell growth was monitored periodically (every 1 hr) for indicated durations via calculation of a “cell index” (reflect to the surface area covered by the cells) in each well. […]
6) The sensor devices were put into the incubator again and the cells were continuously monitored cellular status changes.
7) Cell viability was determined as a cell index (CI) calculated from the impedance of each well automatically by the RT-CES system once per hr until the end of the experiment. […]
In data set [2] the test system is ARPE-19 cells. The experiment in a line: Fatty acids against 7KCh-mediated cell death (CCK8). Type of data set: cell-based. To be noted: 12 μM 7KCh for 24 hr; tested 0.1, 0.5, 1, 5 and 10 μM. The method, then: FIGS. 12A-12C depict ARPE-19 cell viability in response to 12 μM 7KCh with or without 0.1-5 μM (A) sterculic acid and (B) stearic acid after 24 hr treatments. Error bars indicate the standard deviations. n=3-5. Two-tailed Student's t-test. (C) Representative images of changes in cell morphology in response to 12 μM 7KCh with or without 1 μM sterculic acid and stearic acid after 24 hr treatments.
(§1) ARPE-19 cells were seeded in 24-well plates with 1×10^5 cells per well and allowed to recover for 16-24 hr. Once confluency reached approximately 90%, the effect of the fatty acids against 7KCh-mediated cell death was examined 24 hr after incubation in serum-free medium with 12 μM 7KCh. Fatty acids were tested at 0.1, 0.5, 1, 5 and 10 μM concentrations. The effects of the fatty acids against 7KCh-mediated inflammation and ER stress were examined by incubating cells in 1 μM fatty acids with either 8 μM 7KCh (24 hr for quantitative real-time PCR (qRT-PCR), 24 and 48 hr for immunoblot), or 6 μM 7KCh for 48 hr (for ELISA). Three individual experiments were performed for each treatment with quadruplicate measurements performed for each experiment in 24-well plates.
The cell viability was determined by the dehydrogenase activity of the ARPE-19 cells using Cell Counting Kit-8 (CCK8, Dojindo, Gaithersburg, Md.) according to manufacturer's protocol.
The lowest effective concentrations of fatty acids that offset the 7KCh-mediated cell death were determined. […] Table 3 lists the lowest concentrations of these fatty acids required to maintain full cell viability against 12 μM 7KCh treatment. All unsaturated fatty acids protected against 7KCh-induced cell death. […] DHA, α-linolenic, and linoleic acid prevented 7KCh-mediated cell death at 5 μM but the rest of unsaturated fatty acids and dihydrosterculic acid required 10 μM to be protective.

The subject of data set [3] is ARPE19 cells. The data set is described as follows: Cell Counting Kit-8 viability assay, 15 μM 7KCh-induced cytotoxicity.
Method: 4×10^4 cells were seeded onto wells of a 96 well plate. […] Cell viability was determined as celluar dehydrogenase activity and expressed as the percentage of compound treated cells relative to that of untreated controls. error bar: standard deviation, n=4.
The kit allows sensitive colorimetric assays for the determination of the number of viable cells in cell proliferation and cytotoxicity assays. The amount of the formazan dye generated by the activity of dehydrogenases in cells is directly proportional to the number of living cells.
1) Cells were cultivated in a 96 well cell plate (Costar#3599, Corning Incorp, Corning, N.Y.).
2) The cell suspension (40,000 cells/100 μL) were added to 100 μL culture media per well and stood for 15 min at room temperature and cultured at 37° C. in a humidified 5% CO2 atmosphere.
3) Approximately 19 hr after seeding, when the cells were fully confluent, the cells were treated with either DMSO or 1 μM fatty acid in 200 μL of serum free media and subsequently added with 15 μM 7KCh in HPBCD. Then, the plate was swirled for mixing. The cells were also treated with DMSO and HPBCD, which served as vehicle control. The final DMSO and HPBCD concentrations in the media were in the range of 0.1% and 0.0675%, respectively.
Cell viability was expressed as the percentage of compound treated cells relative to that of untreated controls. Prior to measure cell viability, the cells were imaged live by Nikon TE 2000-U inverted fluorescent microscope.
Data set [4] relates to ARPE19 cells. The experiment in a line: Phase-contrast images of cells after co-treatment with 15 μM 7KCh. In kind it is cell-based, human. Conditions: 1 μM fatty acid + 15 μM 7KCh, 24 hr. From the text:
FIG. 8 depicts phase-contrast images of ARPE19 cells at 24 hr after sterculic acid co-treatment with 7KCh.

The subject of data set [5] is D407 cells. The data set is described as follows: 7-ketocholesterol-mediated cytotoxicity, 24-well CCK-8 viability. To be noted: 5 μM co-treatment with 11 μM 7KCh, 24 hr.
Data set [6] deals with ARPE19 cells. The data set is described as follows: 7-ketocholesterol-mediated cytotoxicity, 24-well CCK-8 viability and images. Conditions: 24 hr.
Data set [7] relates to ARPE-19 cells. The experiment in a line: qRT-PCR of inflammatory cytokines and ER stress markers, 7KCh-mediated inflammation. In kind it is cell-based. On the procedure:
FIGS. 13A-13D depict mRNA expressions of (A) VEGF, (B) IL-6, (C) GRP78, and (D) CHOP in response to 8 μM 7KCh with or without 1 μM long-chain fatty acids. Error bars indicate the standard deviations. *p<0.05 comparing to 7KCh, n=3. Two-tailed Student's t-test.
FIGS. 14A-14D depict mRNA expressions of (A) VEGF, (B) IL-1b, (C) IL-6, and (D) IL-8 in response to 8 μM 7KCh, 1 μM sterculic acid, 1 μM stearic acid, or the combinations of 7KCh with either sterculic acid or stearic acid. Error bars indicate the standard deviations. *p<0.05 comparing to 7KCh, n=4. Two-tailed Student's t-test.
FIGS. 15A-15D depict mRNA expressions of (A) TNF-α, (B) TGF-β1, (C) GRP78, and (D) CHOP in response to 8 μM 7KCh, 1 μM sterculic acid, 1 μM stearic acid, or the combinations of 7KCh with either sterculic acid or stearic acid. Error bars indicate the standard deviations. *p<0.05 comparing to 7KCh, n=3-4. Two-tailed Student's t-test.
as §1
(§2) The RNA was extracted using RNeasy Mini Kit (Qiagen, Valencia, Calif.). The reverse transcription was performed with reagents and kits from Invitrogen. Quantification of mRNA expression was performed using the Taqman gene expression assays and the following primers (VEGFa, Hs00173626_m1; IL-1β, Hs01555413_m1; IL-6, Hs00174131_m1; IL-8, Hs00174103_m1; IκBα, Hs00153283_m1; GRP78, Hs99999174_m1; CHOP, Hs01090850_m1; NOX2, Hs00166163_m1; NOX4, Hs01558199_m1; SCD, Hs00748952 s1; TNF-α, Hs00174128_m1; TGF-β1, Hs00998133_m1; GAPD, 4352934e). GAPD expression was used as an endogenous standard. All qRT-PCR experiments were measured in triplicates in an ABI 7500 Real-Time PCR Instrument (Applied Biosystems, Foster City, Calif.). The results of each treatment were normalized and presented in percentage relative to the vehicle-only control.

The test system of data set [8] is ARPE19 cells. The data set is described as follows: CellTiter-Glo luminescent cell viability assay, 15 μM 7KCh-induced cytotoxicity. In kind it is cell-based, human. To be noted: 24 hr, CellTiter-Glo. On the procedure:
Error bar: standard deviation, n=4.
CellTiter-Glo® Luminescent Cell Viability Assay is a homogeneous method of determining the number of viable cells in culture based on quantitation of the ATP (luminescent signal) present, an indicator of metabolically active cells.
The contents in a plate were mixed for 2 min on an orbital shaker to induce cell lysis.
5) The plate was allowed to incubate at room temperature for 10 min to stabilize luminescent signal.

Data set [9] relates to ARPE-19 cells. The experiment in a line: ELISA of secreted VEGF, IL-6, IL-8 in conditioned medium. Type of data set: cell-based. Conditions: 6 μM 7KCh alone or with 1 μM fatty acid, 48 hr. The method, then:
FIGS. 16A-16E depict the secreted protein levels of (A) VEGF, (B) IL-6, and (C) IL-8 were measure by ELISA 48 hr after treatment with 6 μM 7KCh, 1 μM sterculic acid, 1 μM stearic acid, or the combinations of 7KCh with either sterculic acid or stearic acid. Error bars indicate the standard deviations. *p<0.05 comparing to 7KCh, n=3. Two-tailed Student's t-test. The expressions of GRP78 and CHOP were shown by immunoblots (D) 24 hr or (E) 48 hr after treatment with 8 μM 7KCh, 1 μM sterculic acid, 1 μM stearic acid, or the combinations of 7KCh with either sterculic acid or stearic acid.
as §1
The levels of secreted VEGF, IL-6, IL-8, and TNF-α in conditioned medium of ARPE-19 cell cultures were measured 48 hr after treatments of 6 μM 7KCh and 1 μM fatty acids using the Quantkine ELISA kits from R&D systems (Minneapolis, Minn.). The protein levels were measured in triplicates. The ELISA results were quantified using an Envision multilable plate reader (PerkinElmer, Covina, Calif.) and presented in percentage relative to the vehicle-only control.

The subject of data set [10] is stearoyl-CoA desaturase (SCD). The data set is described as follows: SCD mRNA expression (qRT-PCR). Type of data set: cell-based. To be noted: 4 μM 7KCh, 24 hr. On the procedure:
FIGS. 18A and 18B depict (A) Dose response of SCD mRNA inductions by 0-12 μM 7KCh after 24 hr treatments. (B) The mRNA expressions of SCD in response to 8 μM 7KCh, 1 μM sterculic acid, 1 μM stearic acid, or the combinations of 7KCh with either sterculic acid or stearic acid. Error bars indicate the standard deviations. n=4.
as §2
To determine the effect of 7KCh on SCD expression ARPE-19 cells were incubated with 4 μM 7KCh for 24 hr. 7KCh suppressed SCD mRNA expression by approximately 60-70% (FIG. 18A). […] Treatment of the cells with 8 μM 7KCh and 1 μM sterculic acid further suppress SCD expression to 86% (FIG. 18B). […] This is the only instance where 7KCh and sterculic acid worked synergistically rather than antagonistically.

Data set [11] is described as follows: 7-ketocholesterol-mediated cytotoxicity, 24-well CCK-8 viability. Conditions: human.

For `CCCCCCCC/C=C\CCCCCCCC(=O)O` [oleic acid], the “protection from 7KCh induced cytotoxicity (cell index)” value in data set [1] was “slight protective effect”. Also, the “CONC. (μM): lowest concentration required to maintain full cell viability against 7KCh” value in data set [2] was 10 µM. Moreover, the “protective effect against cytotoxicity by 7KCh (summary of the viability assays)” value in data set [3] (1 μM fatty acid + 15 μM 7KCh) is given as “slight protective effect”. Also, the “increase of cell viability compared to 7KCh alone treatment” value amounted to 10% in data set [3] (1 μM fatty acid + 15 μM 7KCh, 24 hr, CCK-8) and 10% in data set [8] (1 μM fatty acid + 15 μM 7KCh). Further, in data set [4], the “cell morphological changes compared to 7KCh alone” value is “more cells compared to 7KCh alone”. For the same compound, the entries for the “protection effect at 5 μM” value in data set [5] and in data set [6] (5 μM co-treatment with 12 μM 7KCh) were “slight effect; also recorded: not as significant comparing to sterculic acid” and “slight effect; also recorded: slight protection”, respectively. Also, the “protection of cell confluency and morphology (images)” value in data set [6] (0.5 μM co-treatment with 12 μM 7KCh) is “no effect”; in data set [6] (1 μM co-treatment with 12 μM 7KCh) it was “slight effect; also recorded: do not have such protection effect”. In addition, the “effect on 7KCh-mediated mRNA induction (inflammatory response)” value in data set [7] (1 μM fatty acid + 8 μM 7KCh, 24 hr, FIG. 13) is on record as “either ineffective or enhanced”.

Take `CC(C)CCC[C@@H](C)[C@H]1CC[C@H]2[C@@H]3C(=O)C=C4C[C@@H](O)CC[C@]4(C)[C@H]3CC[C@]12C` [7KCh, 7-Ketocholesterol]: in [9], the “secreted IL-6 protein expression” value is given as 1.8 fold, the “secreted IL-8 protein expression” value is recorded as 1.7 fold and the “secreted VEGF protein expression” value came out at 1.6 fold. In addition, the “loss in cell viability” value in data set [3] (15 μM 7KCh, 24 hr, CCK-8) is recorded as 50-60%. For the same compound, the “suppression of SCD mRNA expression” value in [10] is 60-70%. The same compound registered a cytotoxic concentration (CC50) at 24 h in data set [11] of 11 µM. For the same compound, the “VEGF mRNA expression” value in data set [7] (8 μM 7KCh alone or with 1 μM fatty acid, 24 hr, FIG. 13A) was 4 fold. Besides, the “IL-6 mRNA expression” value in [7] (8 μM 7KCh alone or with 1 μM fatty acid, 24 hr, FIG. 13B) is listed as 22 fold. Moreover, in data set [7] (8 μM 7KCh alone or with 1 μM fatty acid, 24 hr, FIG. 13C), the “GRP78 mRNA expression” value is recorded as 4 fold. Further, the “CHOP mRNA expression” value in data set [7] (8 μM 7KCh alone or with 1 μM fatty acid, 24 hr, FIG. 13D) came to 15 fold. In addition, the “induction of VEGF mRNA” value in data set [7] (8 μM 7KCh alone or with 1 μM fatty acid, FIG. 14A) was found to be 5.5 fold. In addition, the “induction of IL-1β mRNA” value in data set [7] (8 μM 7KCh alone or with 1 μM fatty acid, FIG. 14B) was found to be 6.7 fold. Also, in [7] (8 μM 7KCh alone or with 1 μM fatty acid, FIG. 14C), the “induction of IL-6 mRNA” value stood at 21 fold. The “induction of IL-8 mRNA” value in [7] (8 μM 7KCh alone or with 1 μM fatty acid, FIG. 14D) came to 4.7 fold. Also, in data set [7] (8 μM 7KCh alone or with 1 μM fatty acid, FIG. 15A), the “induction of TNF-α mRNA” value was 2.7 fold. Further, the “induction of TGF-β1 mRNA” value in data set [7] (8 μM 7KCh alone or with 1 μM fatty acid, FIG. 15B) is 1.3 fold. For the same compound, the “induction of GRP78 mRNA” value in data set [7] (8 μM 7KCh alone or with 1 μM fatty acid, FIG. 15C) is recorded as 5.4 fold. Besides, the “induction of CHOP mRNA” value in [7] (8 μM 7KCh alone or with 1 μM fatty acid, FIG. 15D) came to 12 fold. Further, in data set [8] (15 μM 7KCh), the “loss in cell viability” value is on record as 40-50%.
